Laboratory results as given in patent publication US4603209A, “Fluorescent indicator dyes for calcium ions” (priority 1984, dated 1986).
Like-named read-outs stand apart in the source and are kept apart here.

How the values were obtained:
[1] = calculated from tables of Martell & Smith, read-out: apparent dissociation constant for Ca-EGTA, cited from earlier work
[2] = type: binding
Procedure: (§1) Calcium and magnesium affinities of EGTA at high ionic strength were measured by titrating 125 micromole portions of EGTA (Fluka Chemical, puriss grade) with 1.00M KOH (J.T. Baker, low in carbonate). The EGTA was dissolved in 25 ml medium containing 225 mM KCl, 25 mM NaCl, and in some runs 10 mM CaCl2 or 21 mM MgCl2. This solution was stirred in a Radiometer TTA80 Titrator, bubbled continuously with nitrogen, and thermostatted at 18° C. while KOH was added in 0.005 or 0.01 ml aliquots from a ABU80autoburet. The pH was measured with a PHM84 meter, a G2040C electrode and an Ag/AgCl reference electrode connected to the titration solution by a long length of 0.01 inch catheter tubing filled with 3M KCl; this electrode chain was calibrated with phthalate (4.001), phosphate (6.889), and borax (9.245) buffers made according to National Bureau of Standards recipes. The fifty to eighty pH readings in each titration were analyzed by the FORTRAN program SCOGS of Sayce (see reference 36). The resulting proton ionization constants for EGTA were 9.537 and 8.961 with computed uncertainties of ±0.012 and ±0.008 respectively. […] At this ionic strength and any pH>4, the effective stability constant K'Ca may be calculated as (antilog 10.77)·[1 +antilog (3.51-pH)]/[1+antilog (9.537-pH)+antilog (9.537+8.961-2·pH)]in units of liters/mole. […]

[3] = reference 11; cited from earlier work
[4] = reference 11; cited from earlier work; remark: listed apart in the source
[5] = type: binding; remark: listed apart in the source
Procedure: as §1

[6] = cited from earlier work
[7] = read-out: apparent dissociation constant for Mg-EGTA, cited from earlier work

proton pKa for Ca.EGTA ([2]; 225 mm kcl, 25 mm nacl): 3.51±0.49
Kd ([2]; pH 7.02 in 225 mM KCl, 25 mM NaCl at 18° C., freshly determined, read-out: apparent dissociation constant for Ca-EGTA): 0.49 µM
proton pKa for Mg.EGTA ([5]; 225 mm kcl, 25 mm nacl): 7.885±0.05
Kd ([5]; pH 7.02 in 225 mM KCl, 25 mM NaCl at 18°, freshly determined, read-out: apparent dissociation constant for Mg-EGTA): 99000 µM
Compound: O=C(O)CN(CCOCCOCCN(CC(=O)O)CC(=O)O)CC(=O)O [EGTA, ethylene glycol bis(beta-aminoethyl ether)-N,N,N',N'-tetracetic acid]
Kd ([1]; pH 7.00 in 0.1M KCl, 20° C.): 0.38 µM
Kd ([1]; pH 7.05 in 130 mM KCl, 20 mM NaCl at 37° C.): 0.214 µM
Kd ([1]; pH 7.20 in 0.1M KCl, 20° C.): 0.151 µM
preference for Mn^2+ over Ca^2+ [3]: ca. 20 fold
preference for Fe^2+ over Ca^2+ [4]: ca. 8 fold
Kd ([6]; pH 7.11, reference 11, read-out: effective dissociation constant of EGTA for Zn^2+): 0.00427 µM
preference for Zn^2+ over Ca^2+ ([6]; reference 11): ca. 50 fold
Kd ([7]; pH 7.05 in 130 mM KCl, 20 mM NaCl at 37°): 8960 µM
Kd ([7]; pH 7.18 in 130 mM KCl at 20°): 21000 µM
